Measurements reported in patent publication US20200179380A1, “SOLUTE AND SOLUTE MIXTURE, AS WELL AS A COMPOSITION COMPRISING AT LEAST ONE SOLUTE, FOR USE IN THE PREVENTION OR TREATMENT OF COSMETIC OR PATHOLOGIC EFFLORESCENCES CAUSED BY AIRBORNE PARTICLES” (bitop AG, priority 2014, published 2020).
Values joined by “and” are separate entries in the source; they are usually repeats but may differ in a detail not shown here. Identical values can stand only once. Like-named read-outs stand apart in the source and are kept apart here.

What was measured:
Assay type in all cases: cell-based, human
[1] = system: POMC gene; experiment: POMC gene expression (real-time PCR, relative to 18s-rRNA) in keratinocytes exposed to model particles; conditions: for inhibition at 2000 µM / activity at 2000 µM: Homo sapiens, Keratinocyte, 2 mM S-ectoine; for activity at 2000 µM: read-out: POMC Remaining activity %; for POMC expression ±S-ectoine mean ± SD: 24 h pretreatment with 2 mM S-ectoine, untreated = 1; for POMC expression induced by model particles after ectoine pretreatment (in words): Printex90, Huber 990, SRM1650, SRM2975, pretreatment with 2 mM ectoine for 24 hours
[2] = system: Cyp1a1 gene; experiment: Cyp1a1 gene expression (real-time PCR, relative to 18s-rRNA) in keratinocytes exposed to model particles; conditions: for inhibition at 2000 µM / activity at 2000 µM: Homo sapiens, Keratinocyte, 2 mM S-ectoine; for activity at 2000 µM: read-out: Cyp1a1 Remaining activity %
Experimental: The model particles were suspended in phosphate buffered saline solution and treated with ultrasound for 1 minute ([…]90, SRM1650 and SRM2975) or 90 seconds (Huber990). Subsequently, addition to keratinocytes was done immediately. […] The incubation time of keratinocytes under the influence of model particles was 24 hours. Human epidermal keratinocytes were taken from healthy patients during abdominoplasty or breast reduction with the consent of the patients. The tissue donors originate in Asia or were of Caucasian origin. The keratinocytes isolated from the tissues were cultivated in Keratinocyte-SFM (Gibco®, Life Technologies GmbH, Darmstadt, Germany). The medium was enriched by 5 mg/L of human recombinant epidermal growth factor (EGF), 50 mg/L pituitarium which is an extract from pituitary gland from bovine (Bovine Pituitary Extract, BPE), 1% L-glutamine, 1% streptomycin/amphotericin B (Invitrogen, Karlsruhe, Germany). The cultivation was done at humid atmosphere in the presence of 5% CO2. Subconfluent keratinocytes were transferred to sample vessels having 12 sample wells (12-well plates), and were each cultivated in the sample wells. Treatment with the model particles was also done in the sample wells. […] After an incubation time of 24 hours in the presence of the model particles, RNA was isolated from the keratinocytes and relative RNA content was determined. The expression of proinflammatory gene ICAM-1, POMC gene encoding for proopiomelanocortin, MMP1 gene encoding for a human collagenase, and Cyp1a1 encoding for a phase-I-enzyme of Cytochrome P450 superfamily was investigated as a marker for the influence of the model particles on skin condition. The enzyme encoded by Cyp1a1 gene ranks among the group of phase-I-P450-Cytochrome enzymes and mediates metabolism of drugs, foreign substances and environmental toxins. The Cy1a1 enzyme is a monooxygenase and responsible for metabolizing the afore-mentioned compounds. The protein is encoded in endoplasmic reticulum and its expression can severely be induced by polycyclic aromatic hydrocarbons. The enzyme encoded by Cyp1a1 metabolizes environmental noxae, in particular polycyclic aromatic hydrocarbons, into cancer-causing intermediates. Cyp1a2 is a family member related to Cyp1a1. Increased Cyp1a1 expression, and, in particular, increased Cyp1a2 expression, thus proves detoxification reaction. The total RNA content was determined according to […] et al. ([…]-Beck […], Brenden H, […]. “Bioactive molecules from the Blue Lagoon: in vitro and in vivo assessment of silica mud and microalgae extracts for their effects on skin barrier function and prevention of skin ageing”. Exp Dermatol 2008 17:771.). For this purpose, the total RNA was isolated using RNeasy Total RNA Kits (Qiagen, Hilden; Germany). The RNA concentration was photometrically determined at 260/280 nm (Biophotometer, Eppendorf, Hamburg, Germany). Aliquots of total RNA of 100 ng were used for first strand cDNA synthesis using Superscript® III for the transcription step using random primers (Invitrogen, Karlsruhe, Germany). […] For the total RNA content a specific primer for the proof of 18s rRNA was designed. Independent experiments were performed with a triple determination in each case, and the mean was determined. PCR reaction was done using CFX384 TouchTM Real-Time PCR Detection System (Bio-Rad, München, Germany). In order to fluorescent marking SybrGreen-Mix was used (Thermo Fisher Scientific, St. Leon-Rot, Germany). For each experiment three samples, respectively, were determined in duplicate, and the mean was determined. […] (activation of heat-activating taq polymerase) 10 seconds at 95° C. (denaturation), 20 seconds at 55° C. (annealing), 20 seconds at 72° C. (elongation). Likewise, for comparison of relative expression the expression of untreated keratinocytes was investigated. […] Methods 25: 402-408). […] The data underlying the statistical analysis are not shown here.

[3] = system: MMP1 gene; experiment: MMP1 gene expression (real-time PCR, relative to 18s-rRNA) in keratinocytes exposed to model particles; conditions: for inhibition at 2000 µM / activity at 2000 µM: Homo sapiens, Keratinocyte, 2 mM S-ectoine; for activity at 2000 µM: read-out: MMP1 Remaining activity %; for MMP1 expression ±S-ectoine mean ± SD: 24 h pretreatment with 2 mM S-ectoine, untreated = 1
Experimental: The model particles were suspended in phosphate buffered saline solution and treated with ultrasound for 1 minute ([…]90, SRM1650 and SRM2975) or 90 seconds (Huber990). Subsequently, addition to keratinocytes was done immediately. […] The incubation time of keratinocytes under the influence of model particles was 24 hours. Human epidermal keratinocytes were taken from healthy patients during abdominoplasty or breast reduction with the consent of the patients. The tissue donors originate in Asia or were of Caucasian origin. The keratinocytes isolated from the tissues were cultivated in Keratinocyte-SFM (Gibco®, Life Technologies GmbH, Darmstadt, Germany). The medium was enriched by 5 mg/L of human recombinant epidermal growth factor (EGF), 50 mg/L pituitarium which is an extract from pituitary gland from bovine (Bovine Pituitary Extract, BPE), 1% L-glutamine, 1% streptomycin/amphotericin B (Invitrogen, Karlsruhe, Germany). The cultivation was done at humid atmosphere in the presence of 5% CO2. Subconfluent keratinocytes were transferred to sample vessels having 12 sample wells (12-well plates), and were each cultivated in the sample wells. Treatment with the model particles was also done in the sample wells. […] After an incubation time of 24 hours in the presence of the model particles, RNA was isolated from the keratinocytes and relative RNA content was determined. The expression of proinflammatory gene ICAM-1, POMC gene encoding for proopiomelanocortin, MMP1 gene encoding for a human collagenase, and Cyp1a1 encoding for a phase-I-enzyme of Cytochrome P450 superfamily was investigated as a marker for the influence of the model particles on skin condition. The collagenase encoded by MMP1 gene ranks among the matrix metalloproteases and cleaves the peptide bond between proline and other amino acids of collagen I, II, III, VII and X, thereby degrading the collagen. Collagenases and, in particular, the MMP1 collagenase are involved in tissue remodeling and biological processes of the skin, such ach morphogenesis or tumor growth (benign or malign tumor formation). Thus, increased expression of MMP1 gene is a proof for increased activity of the skin cells, in particular keratinocytes. Increased MMP1 gene expression can be an indication of excessive cell growth and, thereby, of benign or malign carcinogenesis. The total RNA content was determined according to […] et al. ([…]-Beck […], Brenden H, […]. “Bioactive molecules from the Blue Lagoon: in vitro and in vivo assessment of silica mud and microalgae extracts for their effects on skin barrier function and prevention of skin ageing”. Exp Dermatol 2008 17:771.). For this purpose, the total RNA was isolated using RNeasy Total RNA Kits (Qiagen, Hilden; Germany). The RNA concentration was photometrically determined at 260/280 nm (Biophotometer, Eppendorf, Hamburg, Germany). Aliquots of total RNA of 100 ng were used for first strand cDNA synthesis using Superscript® III for the transcription step using random primers (Invitrogen, Karlsruhe, Germany). […] For the total RNA content a specific primer for the proof of 18s rRNA was designed. Independent experiments were performed with a triple determination in each case, and the mean was determined. PCR reaction was done using CFX384 TouchTM Real-Time PCR Detection System (Bio-Rad, München, Germany). In order to fluorescent marking SybrGreen-Mix was used (Thermo Fisher Scientific, St. Leon-Rot, Germany). For each experiment three samples, respectively, were determined in duplicate, and the mean was determined. The PCR protocol comprised 46 cycles, each cycle 15 minutes at 94° C. (activation of heat-activating taq polymerase) 10 seconds at 95° C. (denaturation), 20 seconds at 55° C. (annealing), 20 seconds at 72° C. (elongation). Likewise, for comparison of relative expression the expression of untreated keratinocytes was investigated. […] Methods 25: 402-408). […] The data underlying the statistical analysis are not shown here.

[4] = Printex90, Huber 990, SRM1650, SRM2975, pretreatment with 2 mM ectoine

Cyp1a1 expression induced by model particles after ectoine pretreatment (in words) [2, 4]: inhibited
Cyp1a1 expression ±S-ectoine mean ± SD ([2]; Printex90 particles, 24 h pretreatment with 2 mM S-ectoine, untreated = 1): 1.19 and 1.19 ± 0.29
SMILES: CC1=N[C@H](C(=O)O)CCN1 [S-ectoine, (S)-1,4,5,6-tetrahydro-2-methyl-4-pyrimidine carboxylic acid]
inhibition at 2000 µM ([1]; Huber990 particles): 100%
activity at 2000 µM ([1]; Huber990 particles): 0%
inhibition at 2000 µM ([1]; Printex90 particles): 100%
activity at 2000 µM ([1]; Printex90 particles): 0%
inhibition at 2000 µM ([1]; SRM1650 particles): 99%
activity at 2000 µM ([1]; SRM1650 particles): 1%
inhibition at 2000 µM ([1]; SRM2975 particles): 100%
activity at 2000 µM ([1]; SRM2975 particles): 0%
POMC expression ±S-ectoine mean ± SD ([1]; Huber990 particles): 0.83 ± 0.04+
POMC expression induced by model particles after ectoine pretreatment (in words) [1]: significant inhibition
POMC expression induced by model particles after ectoine pretreatment (in words) ([1]; listed as ectoine): inhibited
POMC expression ±S-ectoine mean ± SD ([1]; Printex90 particles): 0.88 ± 0.05+
POMC expression ±S-ectoine mean ± SD ([1]; SRM1650 particles): 1.01 ± 0.05+
POMC expression ±S-ectoine mean ± SD ([1]; SRM2975 particles): 0.99 ± 0.08+
inhibition at 2000 µM ([2]; Huber990 particles): 57%
activity at 2000 µM ([2]; Huber990 particles): 43%
inhibition at 2000 µM ([2]; Printex90 particles): 70%
activity at 2000 µM ([2]; Printex90 particles): 30%
inhibition at 2000 µM ([2]; SRM1650 particles): 46%
activity at 2000 µM ([2]; SRM1650 particles): 54%
inhibition at 2000 µM ([2]; SRM2975 particles): 41%
activity at 2000 µM ([2]; SRM2975 particles): 59%
inhibition at 2000 µM ([3]; Huber990 particles): 42%
activity at 2000 µM ([3]; Huber990 particles): 58%
inhibition at 2000 µM ([3]; SRM1650 particles): 26%
activity at 2000 µM ([3]; SRM1650 particles): 74%
MMP1 expression induced by model particles after ectoine pretreatment (in words) [3, 4]: inhibited
MMP1 expression ±S-ectoine mean ± SD ([3]; Printex90 particles): 0.82 ± 0.10
MMP1 expression ±S-ectoine mean ± SD ([3]; SRM2975 particles): 1.28 ± 0.22
